Experimental data taken from patent US9464064B2, “HCV helicase inhibitors and methods of use thereof” (University of Kansas, priority 2011, dated 2016).

Columns and labels:
scNS4A-NS3p = biological target: T1, scNS4A-NS3p (UniProt P26663); experiment: NS3 protease assay (ENZOLYTE 520), protease fragment; assay type: biochemical, hepatitis C virus genotype 1b; settings: read-out: Protease ScNS4a-NS3p IC50 (μM) ± SD; one set of assays
T1 construct: fused on or other part: NS4A cofactor peptide, from the same polyprotein, fused to the NS3 protease fragment
T1 sequence (P26663 1027-1657): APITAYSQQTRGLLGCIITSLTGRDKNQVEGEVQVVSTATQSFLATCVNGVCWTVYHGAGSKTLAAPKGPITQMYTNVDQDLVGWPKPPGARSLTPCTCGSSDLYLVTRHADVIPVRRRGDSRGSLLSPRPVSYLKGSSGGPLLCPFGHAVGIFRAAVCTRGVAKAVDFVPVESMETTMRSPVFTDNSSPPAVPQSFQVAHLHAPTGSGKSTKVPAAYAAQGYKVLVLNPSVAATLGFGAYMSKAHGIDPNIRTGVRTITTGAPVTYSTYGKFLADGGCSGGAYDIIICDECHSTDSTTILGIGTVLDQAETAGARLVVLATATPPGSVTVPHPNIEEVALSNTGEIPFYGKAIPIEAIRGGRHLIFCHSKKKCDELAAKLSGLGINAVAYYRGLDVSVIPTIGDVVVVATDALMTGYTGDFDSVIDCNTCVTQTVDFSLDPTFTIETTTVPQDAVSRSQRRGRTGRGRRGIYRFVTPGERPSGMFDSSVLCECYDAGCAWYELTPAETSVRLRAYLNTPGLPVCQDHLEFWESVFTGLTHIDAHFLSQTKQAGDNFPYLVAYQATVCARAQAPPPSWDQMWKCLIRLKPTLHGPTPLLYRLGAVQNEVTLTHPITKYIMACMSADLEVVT
Description: All oligonucleotides were purchased from Integrated DNA Technologies (IDT, Coralville, Iowa). Primuline derivatives were synthesized and purified as described herein. Three different NS3 proteins were used in this study. Two were truncated C-terminally His-tagged NS3 proteins lacking the N-terminal protease, called NS3h, the third was a full-length NS3 with the portion of NS4A needed for protease activation fused to its N-terminus, called scNS4A-NS3 (Howe, et al. (1999) Protein Sci. 8:1332-41), and the fourth was a 23 kDa scNS4A-NS3 protease fragment lacking the helicase domains, called scNS4A-NS3p (Protein One, Rockville, Md.). NS3h was expressed from two different HCV strains. NS3h_1b(con1) was from the con1 strain of genotype 1b (GENBANK accession AB114136), and NS3h_2a(JFH1) was from the JFH1 strain of HCV genotype 2a (GENBANK accession AJ238799). […] His-tagged recombinant NS3h_1b(con1), NS3h_2a(JFH1), and scNS4A-NS3 (also from genotype 1b(con1)) were expressed, and purified as previously described (Frick, et al. (2010) supra; Lam, et al. (2003) J. Virol. 77:3950-3961). The scNS4A-NS3p (genotype 1b) was from Protein One. A plasmid expressing NS3h from dengue virus strain 2 (NS3h_DV2)(GENBANK accession 2BMF) is known in the art (Xu, et al. (2005) J. Virol. 79:10278-10288), and used to express and purify NS3h_DV2 (Belon, et al. (2010) supra)
All NS3 protease assays were carried out using the 5-Carboxyfluorescein-labeled substrate from the AnaSpec. ENZOLYTE 520 Protease Assay Kit (AnaSpec, San Jose, Calif.). Each assay contained 5 nM scNS4A-NS3 or 50 nM scNS4A-NS3p, […], 5% DMSO and 1× Anaspec HCV protease assay buffer. Assays were carried out in a total volume of 20 μl in black 384-well plates with fluorescence at 520 nm measured using a BMG FLUOstar Omega fluorescence spectrophotometer. Reactions were performed with eight concentrations of a two-fold dilution series of each compound (in duplicate) starting at 100 μM.

NS3h_1b = biological target: T2, NS3h_1b (Hepatitis C virus genotype 1b, UniProt Q9WMX2); experiment: ATPase assay without RNA; assay type: biochemical, hepatitis C virus genotype 1b(con1)
T2 construct: truncated C-terminally His-tagged NS3 proteins lacking the N-terminal protease, called NS3h; His-tag (C); made in house
T2 sequence (Q9WMX2 1192-1657): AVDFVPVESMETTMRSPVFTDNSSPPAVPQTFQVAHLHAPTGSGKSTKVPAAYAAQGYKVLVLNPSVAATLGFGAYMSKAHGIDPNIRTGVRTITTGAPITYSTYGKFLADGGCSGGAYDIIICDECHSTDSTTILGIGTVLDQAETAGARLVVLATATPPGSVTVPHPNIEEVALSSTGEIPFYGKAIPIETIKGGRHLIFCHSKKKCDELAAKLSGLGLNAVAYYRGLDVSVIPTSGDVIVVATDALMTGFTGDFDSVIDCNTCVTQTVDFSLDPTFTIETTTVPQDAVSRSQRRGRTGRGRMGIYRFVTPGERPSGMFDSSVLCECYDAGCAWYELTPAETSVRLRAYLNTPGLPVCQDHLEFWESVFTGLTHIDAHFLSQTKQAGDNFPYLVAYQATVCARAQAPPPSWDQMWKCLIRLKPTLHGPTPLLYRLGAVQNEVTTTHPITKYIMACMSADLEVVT
Description: A modified “malachite green” assay (Lanzetta, et al. (1979) Anal. Biochem. 100:95-97) was used to measure ATP hydrolysis. Fifty μL reactions contained 25 mM MOPS pH 6.5, 5 mM MgCl2, 2 mM ATP, 5 μg/mL BSA, 0.01% (v/v) TWEEN 20, 0.05 mM DTT, and poly(U) RNA (Saint Louis, Mo.) as indicated. Reactions were initiated by adding NS3h_1b(con1). Reactions were incubated for 15 minutes at 37° C. then stopped by mixing 40 μL of the reaction into 200 μL of the malachite green reagent (3 volumes 0.045% (w/v) malachite green, 1 volume 4.2% ammonium molybdate in 4N HCl, 0.05 volume of 20% TWEEN 20). […] Absorbance at 630 nm was proportional to the concentration of phosphate produced; free phosphate produced was measured against a standard curve.
A simple explanation for the ability of some of the primuline derivatives to inhibit helicase and protease with similar potency would be that the compounds acted by simply aggregating or denaturing the enzyme. To test for irreversible inhibition, NS3h was incubated with 100 μM of each compound, diluted and then assayed for its ability to unwind DNA under standard conditions. […] In a second test for a simple aggregation mechanism, each compound was tested for its ability to inhibit NS3-catalyzed ATP hydrolysis. ATP hydrolysis fuels the unwinding reaction and NS3 hydrolyzes ATP both in the presence and absence of DNA or RNA; nucleic acid stimulates NS3 catalyzed ATP hydrolysis about 50-fold. […] To test this hypothesis, ATPase assays were performed in the presence of various concentrations of each primuline derivative, under conditions similar to those used to monitor effects on DNA and RNA unwinding. Far more of each compound was needed to inhibit NS3-catalyzed ATP hydrolysis than was needed to inhibit the helicase activity, or, in some cases, NS3 protease activity (Table 11).

NS3h_1b(con1) = biological target: T3, NS3h_1b(con1) (Hepatitis C virus genotype 1b, UniProt Q9WMX2); experiment: RNA-stimulated ATP hydrolysis, pH 7.5, HCV; assay type: biochemical, hepatitis C virus genotype 1b(con1)
T3 construct: truncated C-terminally His-tagged NS3 proteins lacking the N-terminal protease, called NS3h; His-tag (C); made in house
T3 sequence (Q9WMX2 1192-1657): as above
Description: (§1) To compare the effect of compounds on HCV NS3h_1b (con1) to NS3h_DV2, reactions were performed with 2 nM of either enzyme in 25 mM Tris pH 7.5, 1.25 mM MgCl2, 1.0 mM ATP, 10% DMSO, 5 μg/ml BSA, 0.01% (v/v) TWEEN 20, 0.05 mM DTT, and 10 μM poly(U) RNA at 37° C.
To further profile compound specificity, it was determined whether the compounds would inhibit homologous NS3h expressed by the Dengue virus (NS3h_DV2). […] The same assays were also repeated with HCV NS3h_1b(con1) for comparison. […] However, most of the primuline derivatives were relatively potent inhibitors of RNA-stimulated ATP hydrolysis catalyzed by the Dengue enzyme under the same conditions.

NS3h_DV2 = biological target: T4, NS3h_DV2 (Dengue virus type 2, UniProt P29990); experiment: RNA-stimulated ATP hydrolysis, pH 7.5, Dengue; assay type: biochemical; settings: 10 μM poly(U) RNA, read-out: ATPase w/RNA NS3h_DV2 IC50 (μM) ± SD
T4 construct: made in house
T4 sequence (P29990 1646-2093): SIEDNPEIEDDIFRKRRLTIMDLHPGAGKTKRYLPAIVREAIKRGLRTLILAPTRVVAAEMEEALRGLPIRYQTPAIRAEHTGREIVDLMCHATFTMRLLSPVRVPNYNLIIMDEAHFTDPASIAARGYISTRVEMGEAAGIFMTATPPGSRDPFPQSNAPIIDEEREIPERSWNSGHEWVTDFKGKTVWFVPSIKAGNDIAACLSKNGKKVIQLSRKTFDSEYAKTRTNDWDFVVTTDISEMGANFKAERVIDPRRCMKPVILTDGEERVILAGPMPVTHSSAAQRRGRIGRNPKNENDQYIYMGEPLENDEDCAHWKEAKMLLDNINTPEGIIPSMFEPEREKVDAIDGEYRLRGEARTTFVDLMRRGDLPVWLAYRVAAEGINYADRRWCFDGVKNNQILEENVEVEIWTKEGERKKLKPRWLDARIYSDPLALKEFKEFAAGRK
Description: as §1
To further profile compound specificity, it was determined whether the compounds would inhibit homologous NS3h expressed by the Dengue virus (NS3h_DV2). […] The same assays were also repeated with HCV NS3h_1b(con1) for comparison.

[1] = Absorbance and fluorescence properties; assay type: physicochemical; settings: for Absorbance ∈: extinction coefficient
Text: Most of the compounds isolated from the two yellow dyes were fluorescent, absorbing light around 340 nm, and emitting near 420 nm. Their extinction coefficient and peak absorption wavelengths increased as the length of the benzothiazole oligomer increased. Their relative fluorescence decreased with the length of the benzothiazole chain. None of the compounds absorbed light near either the absorption or emission wavelengths of the Cy5-labeled MBHA substrate, or the wavelengths where the fluorescence of ethidium bromide stained DNA, SYBER green I-stained DNA, NS3-catalyzed peptide cleavage, or ATP hydrolysis were measured.
When directly compared with P4, the semi-synthetic primuline derivatives have a sharper absorbance peak centered near 360 nm, and they emit 3-15 times more light when excited at their absorbance maximum. […] Some compounds, like 12, stained both the cytoplasm and nucleus, but they also stained glass coverslips.

SMILES | IC50 (scNS4A-NS3p) | IC50 (NS3h_1b) | IC50 (NS3h_1b(con1)) | IC50 (NS3h_DV2) | Absorbance λmax [1] | Fluorescence Emmax [1] | Fluorescence RFU@ 10 μM [1] | Absorbance ∈ [1]
Cc1ccc2nc(-c3ccc4nc(-c5ccc(NC(=O)c6cc(C(F)(F)F)ccc6F)cc5)sc4c3)sc2c1S(=O)(=O)O [Compound 25, 2′-(4-(2-fluoro-5-(trifluoromethyl)benzamido)phenyl)-6-methyl-[2,6′-bibenzo[d]thiazole]-7-sulfonic acid] | > 100 µM | 61 ± 13 µM | 19 ± 2 µM | 7 ± 0.1 µM | 355 nm | 497 nm | 159 RFU | 41,750 M^−1cm^−1
Cc1ccc2nc(-c3ccc4nc(-c5ccc(NC(=O)c6ccc7ccccc7c6)cc5)sc4c3)sc2c1S(=O)(=O)O [Compound 33, 2′-(4-(2-naphthamido)phenyl)-6-methyl-[2,6′-bibenzo[d]thiazole]-7-sulfonic acid] | > 100 µM | 30 ± 6 µM | 52 ± 6 µM | 3 ± 1 µM | 359 nm | 496 nm | 236 RFU | 63,450 M^−1cm^−1
Cc1ccc2nc(-c3ccc4nc(-c5ccc(N)cc5)sc4c3)sc2c1S(=O)(=O)O [Compound P2a, 2′-(4-aminophenyl)-6-methyl-[2,6′-bibenzo[d]thiazole]-7-sulfonic acid] | > 100 µM | > 200 µM | > 200 µM | 32 ± 17 µM | 366 nm | 553 nm | 15 RFU | 38,550 M^−1cm^−1
